According to ChEMBL document CHEMBL3627644, “2-Arylquinazolin-4(3H)-ones: A new class of α-glucosidase inhibitors” (Bioorg Med Chem, 2015):
pIC50, pKi: −log10 of the molar value.

Key:
[1] = Inhibition of Saccharomyces cerevisiae alpha-glucosidase for 15 mins by multiplate reader method using 0.7 mM p-nitrophenyl-alpha-D-glucopyranoside as substrate; settings: for pIC50: read-out: IC50
[2] = Competitive inhibition of Saccharomyces cerevisiae alpha-glucosidase by multiplate reader method using p-nitrophenyl-alpha-D-glucopyranoside as substrate
[3] = Mixed inhibition of Saccharomyces cerevisiae alpha-glucosidase by multiplate reader method using p-nitrophenyl-alpha-D-glucopyranoside as substrate
[4] = Non-Competitive inhibition of Saccharomyces cerevisiae alpha-glucosidase by multiplate reader method using p-nitrophenyl-alpha-D-glucopyranoside as substrate

Row | pIC50 [1] | Compound | further results
1 | 4.70 | O=c1[nH]c(-c2ccc([N+](=O)[O-])cc2)nc2ccccc12 | IC50 [1]: Not Active
2 | 5.56 | CN(C)c1ccc(-c2nc(O)c3ccccc3n2)cc1 | –
3 | 4.98 | O=c1[nH]c(-c2ccccc2O)nc2ccccc12 | –
4 | 4.74 | O=c1[nH]c(-c2cccc([N+](=O)[O-])c2)nc2ccccc12 | –
5 | 4.17 | O=c1[nH]c(-c2c(Cl)cccc2Cl)nc2ccccc12 | –
6 | 5.63 | O=c1[nH]c(-c2cc(O)ccc2O)nc2ccccc12 | –
7 | 4.83 | COc1cccc(-c2nc3ccccc3c(=O)[nH]2)c1O | –
8 | 5.94 | COc1ccc(O)c(-c2nc3ccccc3c(=O)[nH]2)c1 | –
9 | 5.89 | O=c1[nH]c(-c2ccccc2Cl)nc2ccccc12 | –
10 | 5.01 | O=c1[nH]c(-c2c(O)cccc2Br)nc2ccccc12 | –
11 | 5.49 | CCOc1ccc(-c2nc3ccccc3c(=O)[nH]2)cc1 | –
12 | 6.40 | COc1ccc(-c2nc(O)c3ccccc3n2)cc1 | pKi [4]: 6.60
13 | 4.79 | O=c1[nH]c(-c2cc(Cl)ccc2Cl)nc2ccccc12 | –

The next lines start with the compound.

Row | Compound | pIC50 [1] | further results
14 | COc1ccc(-c2nc(O)c3ccccc3n2)cc1OC | 6.07 | pKi [2]: 6.55
15 | O=c1[nH]c(-c2ccc(O)cc2)nc2ccccc12 | 4.98 | –
16 | Cc1ccc(-c2nc3ccccc3c(=O)[nH]2)cc1 | 4.12 | –
17 | O=c1[nH]c(-c2cccc(O)c2)nc2ccccc12 | – | IC50 [1]: Not Active
18 | COc1ccc(-c2nc3ccccc3c(=O)[nH]2)cc1O | 5.72 | –
19 | COc1cc(-c2nc3ccccc3c(=O)[nH]2)cc(OC)c1OC | 3.93 | –
20 | CCOc1cc(-c2nc3ccccc3c(=O)[nH]2)ccc1O | 6.52 | pKi [2]: 6.37
21 | O=c1[nH]c(-c2ccc(O)c(O)c2)nc2ccccc12 | 5.82 | –
22 | CCOc1ccccc1-c1nc2ccccc2c(=O)[nH]1 | 6.24 | pKi [3]: 5.18
23 | C[C@H]1O[C@H](O[C@H]2[C@H](O)[C@@H](O)[C@@H](O[C@H]3[C@H](O)[C@@H](O)C(O)O[C@@H]3CO)O[C@@H]2CO)[C@H](O)[C@@H](O)[C@@H]1N[C@H]1C=C(CO)[C@@H](O)[C@H](O)[C@H]1O (stereo partly drawn) [ACARBOSE] | – | pKi [2]: 3.13
